From ChEMBL document CHEMBL3301562, “MMV Box screening against Plasmodium falciparum protein kinases and aminoacyl tRNA synthetases”

Assays:
Assay type in all cases: functional
[1] = biological target: T1, Cdk-related protein kinase 6 (Plasmodium falciparum, UniProt O77239); assay: Final concentrations were 1.5 uM ATP, 5 mM MnCl2, and 15 ug/ml PK6 in a buffer of 100 mM Tris-HCl (pH 7.5). 50 ug/mL MBP was provided as the substrate; 10 uM staurosporine was used as a control inhibitor. Incubation time was 3 hours and 40 minutes.The catalytic activity of each kinase was considered proportional to ATP consumed, as determined from measurements of residual [ATP] with the luciferase-based reagent Kinase-Glo (Promega) following incubation. Luminescence (proportional to residual [ATP]) was measured on the plate readers FLx800 (BioTek Instruments, Winooski, VT, USA) and MicroBeta2.
T1 sequence (O77239 whole entry): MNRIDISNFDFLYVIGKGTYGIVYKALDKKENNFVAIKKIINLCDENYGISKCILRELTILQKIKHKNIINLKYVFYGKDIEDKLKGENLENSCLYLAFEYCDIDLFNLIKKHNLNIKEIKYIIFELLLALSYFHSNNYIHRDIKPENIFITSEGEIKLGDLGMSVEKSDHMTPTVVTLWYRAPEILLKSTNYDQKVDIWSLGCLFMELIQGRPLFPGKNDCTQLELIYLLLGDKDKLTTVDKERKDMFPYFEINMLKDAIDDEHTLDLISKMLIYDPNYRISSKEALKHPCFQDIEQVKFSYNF

[2] = biological target: T2, Putative uncharacterized protein pk7 (Plasmodium falciparum, UniProt O96214); assay: Final concentrations were 1 uM ATP, 2 mM DTT, 20 mM MgCl2, 2 mM MnCl2, 0.01% BSA, and 6 ug/ml PK7, in a buffer of 20 mM Tris-HCl (pH 7.5). The enzyme itself was the only substrate present (since autophosphorylation occurs); 100 uM 1NA-PP1 was used as a control inhibitor. Incubation time was 3 hours.
T2 sequence (O96214 whole entry): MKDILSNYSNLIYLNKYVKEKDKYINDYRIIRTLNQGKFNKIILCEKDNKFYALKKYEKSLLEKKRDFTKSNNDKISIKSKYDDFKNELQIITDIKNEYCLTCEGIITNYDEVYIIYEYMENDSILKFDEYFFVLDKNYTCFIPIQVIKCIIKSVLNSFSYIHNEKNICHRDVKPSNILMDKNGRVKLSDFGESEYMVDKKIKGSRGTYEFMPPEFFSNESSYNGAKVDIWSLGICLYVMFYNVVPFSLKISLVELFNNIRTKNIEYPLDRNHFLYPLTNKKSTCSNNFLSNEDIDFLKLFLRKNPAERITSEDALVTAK

[3] = biological target: T3, Mitogen-activated protein kinase (Plasmodium falciparum, UniProt Q25917); assay: Final concentrations were 1 uM ATP, 0.5 mM DTT, 1 mM MgCl2, 0.5 mg/mL BSA, and 10 ug/ml MAP2 in a buffer of 50 mM HEPES (pH 7.0). 0.5 mg/mL histone III-S served as the substrate (13); 100 uM AMP-PNP, an ATP analog, was used as a control inhibitor. Incubation time was 4 hours.
T3 sequence (Q25917 whole entry): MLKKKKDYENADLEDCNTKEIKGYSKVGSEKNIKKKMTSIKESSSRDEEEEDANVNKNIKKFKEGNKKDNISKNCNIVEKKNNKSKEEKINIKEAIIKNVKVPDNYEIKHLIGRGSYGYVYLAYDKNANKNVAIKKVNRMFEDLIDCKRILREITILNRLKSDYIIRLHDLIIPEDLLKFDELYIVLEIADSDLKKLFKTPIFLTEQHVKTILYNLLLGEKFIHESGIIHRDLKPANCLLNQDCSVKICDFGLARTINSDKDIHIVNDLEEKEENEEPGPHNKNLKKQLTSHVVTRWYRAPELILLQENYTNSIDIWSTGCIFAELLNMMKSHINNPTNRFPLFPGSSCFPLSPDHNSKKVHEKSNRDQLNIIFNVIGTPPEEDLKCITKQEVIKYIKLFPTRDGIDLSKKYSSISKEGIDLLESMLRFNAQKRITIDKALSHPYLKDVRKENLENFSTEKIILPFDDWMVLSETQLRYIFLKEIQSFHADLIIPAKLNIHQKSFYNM

[4] = biological target: Calcium-dependent protein kinase 1 (Plasmodium falciparum, UniProt P62344); assay: MMV: CDPK1 Protein kinase inhibition assay using recombinant PfCDPK1, syntide 2 peptide substrate, ATP and KinaseGlo to measure % inhibition at 1 uM MMV box compound.
Chain of Calcium-dependent protein kinase 1 (P62344 whole entry): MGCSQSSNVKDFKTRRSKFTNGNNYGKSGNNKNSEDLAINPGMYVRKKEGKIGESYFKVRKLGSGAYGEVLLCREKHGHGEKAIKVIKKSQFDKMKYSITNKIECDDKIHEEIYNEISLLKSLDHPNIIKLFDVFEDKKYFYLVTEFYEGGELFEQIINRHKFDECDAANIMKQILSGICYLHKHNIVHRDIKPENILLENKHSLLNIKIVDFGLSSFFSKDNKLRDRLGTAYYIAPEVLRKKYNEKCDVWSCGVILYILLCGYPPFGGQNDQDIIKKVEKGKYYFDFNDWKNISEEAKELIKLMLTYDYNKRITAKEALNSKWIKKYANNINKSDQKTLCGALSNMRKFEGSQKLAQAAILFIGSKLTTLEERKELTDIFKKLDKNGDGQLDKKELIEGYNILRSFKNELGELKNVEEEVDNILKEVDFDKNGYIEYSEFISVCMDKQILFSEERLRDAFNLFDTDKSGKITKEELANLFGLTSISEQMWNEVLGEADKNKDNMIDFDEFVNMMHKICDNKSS

[5] = biological target: T4, Calcium-dependent protein kinase 4 (Plasmodium falciparum (isolate 3D7), UniProt Q8IBS5); assay: MMV: CDPK4 Protein kinase inhibition assay using recombinant PfCDPK4, syntide2 peptide substrate, ATP and KinaseGlo to measure % inhibition at 1 uM MMV box compound.
T4 sequence (Q8IBS5 whole entry): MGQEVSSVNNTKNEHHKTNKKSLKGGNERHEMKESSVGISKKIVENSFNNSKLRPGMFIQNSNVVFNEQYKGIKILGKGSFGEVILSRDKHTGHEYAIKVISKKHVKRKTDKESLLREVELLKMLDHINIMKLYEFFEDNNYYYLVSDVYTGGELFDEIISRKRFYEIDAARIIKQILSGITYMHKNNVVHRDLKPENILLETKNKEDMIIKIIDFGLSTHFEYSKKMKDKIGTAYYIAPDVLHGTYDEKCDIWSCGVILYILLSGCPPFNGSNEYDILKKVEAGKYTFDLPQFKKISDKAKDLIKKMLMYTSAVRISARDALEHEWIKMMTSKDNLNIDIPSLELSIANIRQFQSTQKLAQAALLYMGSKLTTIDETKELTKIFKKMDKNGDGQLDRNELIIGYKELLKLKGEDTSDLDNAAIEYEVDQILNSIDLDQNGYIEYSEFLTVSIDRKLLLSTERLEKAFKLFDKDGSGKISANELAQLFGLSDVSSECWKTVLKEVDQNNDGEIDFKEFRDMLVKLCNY

Proline--tRNA ligase = biological target: T5, Proline--tRNA ligase (Plasmodium falciparum (isolate 3D7), UniProt Q8I5R7); assay: MMV: ProRS recombinant Plasmodium falciparum Prolyl-tRNA-synthetase, assay with yeast tRNA, ATP, and proline and 3 uM MMV malaria box compound, assay read out with kinase glo as % inhibition.
T5 sequence (Q8I5R7 whole entry): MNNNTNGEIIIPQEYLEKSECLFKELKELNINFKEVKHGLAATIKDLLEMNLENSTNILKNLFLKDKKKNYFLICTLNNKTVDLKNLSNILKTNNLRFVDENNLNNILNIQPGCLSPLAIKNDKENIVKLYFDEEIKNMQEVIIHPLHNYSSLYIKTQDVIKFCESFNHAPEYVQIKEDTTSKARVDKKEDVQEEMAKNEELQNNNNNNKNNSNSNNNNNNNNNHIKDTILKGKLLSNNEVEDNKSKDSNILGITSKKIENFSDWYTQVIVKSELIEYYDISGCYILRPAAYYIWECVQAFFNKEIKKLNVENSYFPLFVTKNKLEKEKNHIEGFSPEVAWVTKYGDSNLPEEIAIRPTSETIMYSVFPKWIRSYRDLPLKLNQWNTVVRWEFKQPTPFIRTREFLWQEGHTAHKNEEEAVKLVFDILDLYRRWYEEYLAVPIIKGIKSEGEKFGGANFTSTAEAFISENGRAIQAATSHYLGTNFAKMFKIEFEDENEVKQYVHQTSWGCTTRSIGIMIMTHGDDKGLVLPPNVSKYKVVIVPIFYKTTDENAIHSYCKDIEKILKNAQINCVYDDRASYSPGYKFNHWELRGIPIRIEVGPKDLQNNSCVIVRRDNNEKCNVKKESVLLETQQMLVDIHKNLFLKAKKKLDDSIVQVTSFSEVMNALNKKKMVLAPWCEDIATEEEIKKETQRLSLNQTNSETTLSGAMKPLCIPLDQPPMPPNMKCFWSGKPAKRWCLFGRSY

Lysine--tRNA ligase = Lysine--tRNA ligase (Plasmodium falciparum (isolate 3D7), UniProt Q8IDJ8); assay: MMV: KRS recombinant Plasmodium falciparum Lysyl-tRNA-synthetase, assay with yeast tRNA, ATP, and lysine and 3 uM MMV malaria box compound, assay read out with kinase glo as % inhibition.
Chain of Lysine--tRNA ligase (Q8IDJ8 whole entry): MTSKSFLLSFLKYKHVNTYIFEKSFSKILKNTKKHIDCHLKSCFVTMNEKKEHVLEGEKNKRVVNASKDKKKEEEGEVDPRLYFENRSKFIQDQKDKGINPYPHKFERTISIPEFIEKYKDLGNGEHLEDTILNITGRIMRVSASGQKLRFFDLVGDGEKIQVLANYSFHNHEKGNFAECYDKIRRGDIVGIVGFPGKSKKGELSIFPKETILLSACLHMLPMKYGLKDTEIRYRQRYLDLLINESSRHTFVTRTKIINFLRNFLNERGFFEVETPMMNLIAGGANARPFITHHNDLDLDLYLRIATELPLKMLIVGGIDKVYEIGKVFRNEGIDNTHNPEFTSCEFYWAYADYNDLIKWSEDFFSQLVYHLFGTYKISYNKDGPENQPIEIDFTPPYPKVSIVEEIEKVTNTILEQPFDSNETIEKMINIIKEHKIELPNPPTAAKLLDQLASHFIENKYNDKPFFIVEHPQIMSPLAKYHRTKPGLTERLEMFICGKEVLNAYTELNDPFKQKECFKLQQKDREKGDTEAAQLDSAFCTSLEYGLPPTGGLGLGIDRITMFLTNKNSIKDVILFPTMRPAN

Measured: IC50

CCOc1cc(Cl)c(C(C)NC(=O)c2ccccc2)cc1OCC (configuration not stated)
> 2500 nM: Proline--tRNA ligase | Lysine--tRNA ligase
> 1000 nM: [1] | [2] | [3] | [4] | [5]

c1ccc2cc3c(Nc4ccc(N5CCOCC5)cc4)ccnc3cc2c1
> 1000 nM: [1] | [2] | [3] | [4] | [5]
> 2500 nM: Proline--tRNA ligase | Lysine--tRNA ligase

CCOC(=O)c1cn(CC)c2cc(N3CCCCC3)c(F)cc2c1=O
> 1000 nM: [1] | [2] | [3] | [4] | [5]
> 2500 nM: Proline--tRNA ligase | Lysine--tRNA ligase

CCCc1cc(O)c2c3c(c(=O)oc2c1)CN(C)CC3
> 1000 nM: [1] | [2] | [3] | [4] | [5]
> 2500 nM: Proline--tRNA ligase | Lysine--tRNA ligase

CCOc1ccc(-c2nonc2NC(=O)c2cccc(C)c2)cc1OCC
> 2500 nM: Proline--tRNA ligase | Lysine--tRNA ligase
> 1000 nM: [1] | [2] | [3] | [4] | [5]

COc1ccc(-c2nc3cc(Cc4ccc5[nH]c(-c6ccc(OC)cc6)nc5c4)ccc3[nH]2)cc1
> 1000 nM: [1] | [2] | [3] | [4] | [5]
> 2500 nM: Proline--tRNA ligase | Lysine--tRNA ligase

CCOC(=O)c1ccc2[nH]c(-c3ccccc3)cc(=O)c2c1
> 2500 nM: Proline--tRNA ligase | Lysine--tRNA ligase
> 1000 nM: [1] | [2] | [3] | [4] | [5]

Cc1cc(Nc2ccc(Cl)cc2)n2nc(C(F)(F)F)nc2n1
> 2500 nM: Proline--tRNA ligase | Lysine--tRNA ligase
> 1000 nM: [1] | [2] | [3] | [4] | [5]

CCCCCCOC(=O)C1=C(C)NC(=O)NC1c1ccccc1F (configuration not stated)
> 2500 nM: Proline--tRNA ligase | Lysine--tRNA ligase
> 1000 nM: [1] | [2] | [3] | [4] | [5]

Cc1ccc(Nc2nc(NCCO)c3ccccc3n2)cc1C
> 2500 nM: Proline--tRNA ligase | Lysine--tRNA ligase
> 1000 nM: [1] | [2] | [3] | [4] | [5]

COc1ccc(NC(=O)C2c3ccccc3C(=O)N(CC(C)C)C2c2cccs2)cc1 (configuration not stated)
> 2500 nM: Proline--tRNA ligase | Lysine--tRNA ligase
> 1000 nM: [1] | [2] | [3] | [4] | [5]
